What follows are compounds tested against T1, CDK16 (Homo sapiens, UniProt Q00536) (assay: co-crystal structure ([…] Å); also DSF ΔTm […] °C, kinase assay IC50 (E. coli CDK16 + cyclin Y/[…]-3-3)). Settings: not given.
Type: biochemical
Set-up: PCTAIRE-tide substrate

T1 sequence (Q00536 whole entry): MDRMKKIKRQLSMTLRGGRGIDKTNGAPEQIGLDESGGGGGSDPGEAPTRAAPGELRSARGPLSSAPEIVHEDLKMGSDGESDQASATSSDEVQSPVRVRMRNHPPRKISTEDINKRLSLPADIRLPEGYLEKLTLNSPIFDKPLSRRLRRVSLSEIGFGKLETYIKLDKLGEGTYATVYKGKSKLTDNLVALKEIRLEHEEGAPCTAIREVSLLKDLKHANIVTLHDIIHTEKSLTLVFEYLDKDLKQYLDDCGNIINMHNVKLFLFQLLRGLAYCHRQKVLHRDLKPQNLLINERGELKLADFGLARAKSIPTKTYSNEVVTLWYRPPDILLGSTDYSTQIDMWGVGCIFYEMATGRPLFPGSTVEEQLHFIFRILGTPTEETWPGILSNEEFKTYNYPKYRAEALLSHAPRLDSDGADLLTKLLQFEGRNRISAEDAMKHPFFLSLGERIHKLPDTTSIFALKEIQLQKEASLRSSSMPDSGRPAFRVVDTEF
T1 sequence (Q8ND76 2-341 partner): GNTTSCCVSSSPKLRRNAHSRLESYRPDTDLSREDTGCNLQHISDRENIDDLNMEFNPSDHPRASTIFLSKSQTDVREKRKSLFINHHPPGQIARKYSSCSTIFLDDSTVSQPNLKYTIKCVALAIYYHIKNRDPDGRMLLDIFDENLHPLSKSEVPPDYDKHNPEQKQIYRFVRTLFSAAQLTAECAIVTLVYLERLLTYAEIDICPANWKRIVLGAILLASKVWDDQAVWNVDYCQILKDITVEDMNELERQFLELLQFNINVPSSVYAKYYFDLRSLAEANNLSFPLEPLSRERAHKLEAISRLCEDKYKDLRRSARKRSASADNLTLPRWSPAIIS

SMILES	IC50
O=C1Nc2ccccc2/C1=C1/Nc2ccccc2/C1=N\OCCC(O)CO (stereo not drawn) [indirubin E804]	0.083 µM

What follows are compounds tested against T2, CDK16 (Homo sapiens, UniProt Q00536, S319D) (assay: biochemical). Settings: 12.5 µM; binder; Tm shift (°C).
T2 construct: kinase domain, CDK16 163–478, C-terminal His tag
T2 sequence (Q00536 163-478 S319D): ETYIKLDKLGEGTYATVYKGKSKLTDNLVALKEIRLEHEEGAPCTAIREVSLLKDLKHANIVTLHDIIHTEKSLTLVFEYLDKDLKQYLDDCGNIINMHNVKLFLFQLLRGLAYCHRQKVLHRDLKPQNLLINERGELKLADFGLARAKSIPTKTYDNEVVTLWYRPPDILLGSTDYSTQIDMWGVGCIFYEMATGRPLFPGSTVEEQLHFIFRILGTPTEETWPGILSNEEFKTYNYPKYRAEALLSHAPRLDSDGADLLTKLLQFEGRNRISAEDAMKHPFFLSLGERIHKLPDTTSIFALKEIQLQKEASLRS
Set-up: Differential scanning fluorimetry (SYPRO Orange), 2 uM CDK16, Tm shift versus 2.5% DMSO control
Protocol: Thermal melting experiments were performed using a Real-Time PCR machine Mx3005p (Stratagene) as described previously. Briefly, 2 μM CDK16 was screened against a collection of kinase inhibitors in a 96-well plate format. […] Data were analysed with the MxPro software. […] To identify protein constructs suitable for structural studies, human CDK16 was recombinantly expressed in E. coli with a variety of N- and C-terminal truncations. […] To identify potential inhibitors of CDK16, we screened the recombinant protein kinase domain against many inhibitor libraries using differential scanning fluorimetry (DSF). Ligands in this assay increase a protein's melting temperature (Tm shift, ΔTm) by an amount proportional to their binding affinity. […] Rebastinib is a multitargeted type II kinase inhibitor that was developed to inhibit BCR-ABL as well as the drug-resistant gatekeeper mutant ABL^T315I (Figure 1). It has entered phase I clinical trials for chronic myeloid leukaemia.

SMILES	Tm shift (°C)
CN1CCC(C(=O)Nc2n[nH]c3nc(-c4ccc(O)cc4)c(Br)cc23)CC1 [SB-732881]	5.2 °C

Same assay, conditions: read-out: Tm shift (°C)

SMILES	ΔTm at 12.5 µM
CNC(=O)c1cc(Oc2ccc(NC(=O)Nc3ccc(Cl)c(C(F)(F)F)c3)c(F)c2)ccn1 [Regorafenib]	4.1 °C
CC(C)(CO)CNC(=O)c1ccc2c(c1)/C(=N/Nc1ccc(S(N)(=O)=O)cc1)C(=O)N2 [GW301784X]	6 °C
CNC(=O)c1cc(Oc2ccc(NC(=O)Nc3cc(C(C)(C)C)nn3-c3ccc4ncccc4c3)c(F)c2)ccn1 [rebastinib]	12.6 °C
CCN(CC)Cc1ccc(Nc2nccc(-c3cnn4ncccc34)n2)cc1 [GW780056X]	4.8 °C
CC(C)(C)c1nc(-c2cccc(NS(=O)(=O)c3c(F)cccc3F)c2F)c(-c2ccnc(N)n2)s1 [dabrafenib]	10.4 °C
O=C(O[C@H]1CN[C@H](C#Cc2cc3ncnc(Nc4ccc(Cc5ccccc5)cc4)c3s2)C1)N1CCOCC1 [GSK238583A]	5.8 °C
O=C1Nc2ccccc2/C1=C\c1cnc[nH]1 [(Z,E)-3-(imidazol-4-ylmethylene)indolin-2-one]	6.7 °C
CCN1CCC(CC(=O)Nc2n[nH]c3nc(-c4cccs4)c(Br)cc23)CC1 [SB-739245-AC]	5.4 °C
NS(=O)(=O)c1ccc(N/N=C2\C(=O)Nc3ccc(C(=O)NCCc4c[nH]cn4)cc32)cc1 [GW300660X]	6.8 °C
CNC(=O)c1nn(C)c2c1C(C)(C)Cc1cnc(Nc3ccc(N4CCN(C)CC4)cc3)nc1-2 [Milciclib]	6.2 °C
NS(=O)(=O)c1ccc(NN=C2C(=O)Nc3ccc(C(=O)NCc4ccncc4)cc32)cc1 [GW300657X]	8.8 °C
Cc1nc(N)sc1-c1ccnc(Nc2cccc([N+](=O)[O-])c2)n1 [Cdk2/9 Inhibitor]	7.2 °C
Nc1nc(Nc2ccc(S(N)(=O)=O)cc2)nn1C(=S)Nc1c(F)cccc1F [Cdk1/2 Inhibitor III]	9.6 °C
O=C1Nc2ccccc2/C1=C1/Nc2ccccc2/C1=N\OCCC(O)CO (stereo not drawn) [indirubin E804]	7.6 °C
CC(C)COC(=O)c1ccc2c(c1)/C(=C/Nc1ccc(S(N)(=O)=O)cc1)C(=O)N2 [GW416981X]	8.7 °C
CN1CCC(C(=O)Nc2n[nH]c3nc(-c4ccc(O)cc4)c(Br)cc23)CC1 [SB-732881-H]	5.5 °C
O=Nc1c(-c2c(O)[nH]c3ccc(I)cc23)[nH]c2ccccc12 [5-Iodo-indirubin-3′-monoxime]	6.1 °C
O=Nc1c(-c2c(O)[nH]c3ccc(S(=O)(=O)O)cc23)[nH]c2ccccc12 [Indirubin-3′-monoxime-5-sulphonic acid]	6.7 °C
N#CCCc1ccc2c(c1)-c1[nH]c3ccc([N+](=O)[O-])cc3c1CC(=O)N2 [Alsterpaullone, 2-Cyanoethyl]	7.9 °C

The next lines start with the values.

ΔTm at 12.5 µM	SMILES
5.7 °C	O=C(Nc1c[nH]nc1-c1nc2ccc(CN3CCOCC3)cc2[nH]1)NC1CC1 [AT9283]
4.7 °C	Cc1ccc([N+](=O)[O-])cc1S(=O)(=O)N(C)/N=C/c1cnc2ccc(Br)cn12 [PIK-75]
5.8 °C	CC(C)Oc1cc(Nc2nc(N[C@@H](C)c3ccc(F)cn3)ncc2Cl)n[nH]1 [AZ23]
6 °C	COc1ccc2c(c1)/C(=C/c1cnc[nH]1)C(=O)N2 [SU9516]

Each compound was assayed against T1, CDK16 (assay: […] kinase assay with PCTAIRE-tide; also DSF ΔTm […] °C). Settings: not given.
Type: biochemical
Set-up: E. coli-purified human CDK16 (kinase assay); 163–478 S319D in DSF; with cyclin Y (with endogenous 14-3-3)

SMILES	IC50
CC(C)(C)c1nc(-c2cccc(NS(=O)(=O)c3c(F)cccc3F)c2F)c(-c2ccnc(N)n2)s1 [dabrafenib]	0.035 µM

Each compound was assayed against T1, CDK16 (assay: co-crystal structure ([…] Å); also DSF ΔTm […] °C, kinase assay IC50 (E. coli CDK16 + cyclin Y/[…]-3-3), CETSA). Settings: not given.
Type: biochemical
Set-up: PCTAIRE-tide substrate

SMILES	IC50
CNC(=O)c1cc(Oc2ccc(NC(=O)Nc3cc(C(C)(C)C)nn3-c3ccc4ncccc4c3)c(F)c2)ccn1 [rebastinib]	0.032 µM

— publication PMC5317395, “Structure and inhibitor specificity of the PCTAIRE-family kinase CDK16” (Biochemical Journal, 2017)
